From publication PMC12427625, “Heterochannels Kv(1.1-1.2)2 and Their Interactions with Pore Blockers” (Cells, 2025)
Read-outs that look alike come from different tables or passages of the source. Bridge positions count the residues as written; N and C are the ends. Peptide text beside a SMILES is read from it.

Legend:
Kv1.1 [1] = assay: Competitive binding, homotetrameric Kv1.1 channel (earlier data); details: Table 2 and data published previously [35]
[2] = biological target: T1, human heterochannels Kv(1.1-1.2)2 (Homo sapiens, UniProt P16389+Q09470, S369T/S371T); assay: Competitive binding of peptide and HgTx-G to Kv(1.1-1.2)2 heterochannels; details: for fold lower activity compared to Ce1: Kv(1.1-1.2)2, vs Ce1; for displacement of HgTx-G: 0.5 nM HgTx-G, 10 nM HgTx1 (Figure 1)
T1 construct: expressed in transfected cells; host or cells: mouse neuroblastoma Neuro-2a cells transfected with pmKate2-KCNA1-KCNA2
T1 sequence (Q09470 whole entry S369T): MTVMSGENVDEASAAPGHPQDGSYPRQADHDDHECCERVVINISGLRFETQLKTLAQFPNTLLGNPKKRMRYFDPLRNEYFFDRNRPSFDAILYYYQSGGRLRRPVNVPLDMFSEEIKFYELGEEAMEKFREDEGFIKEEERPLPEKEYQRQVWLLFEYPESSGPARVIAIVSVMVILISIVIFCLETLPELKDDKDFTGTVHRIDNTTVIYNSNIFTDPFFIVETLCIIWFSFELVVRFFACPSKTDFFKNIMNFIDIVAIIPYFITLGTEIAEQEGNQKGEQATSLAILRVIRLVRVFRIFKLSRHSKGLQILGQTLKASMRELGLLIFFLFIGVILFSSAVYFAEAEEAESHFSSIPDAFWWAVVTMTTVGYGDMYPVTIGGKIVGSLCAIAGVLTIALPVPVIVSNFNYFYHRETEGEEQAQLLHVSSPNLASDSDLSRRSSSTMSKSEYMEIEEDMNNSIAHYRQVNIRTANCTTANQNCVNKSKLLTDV
T1 sequence (P16389 2-499 S371T): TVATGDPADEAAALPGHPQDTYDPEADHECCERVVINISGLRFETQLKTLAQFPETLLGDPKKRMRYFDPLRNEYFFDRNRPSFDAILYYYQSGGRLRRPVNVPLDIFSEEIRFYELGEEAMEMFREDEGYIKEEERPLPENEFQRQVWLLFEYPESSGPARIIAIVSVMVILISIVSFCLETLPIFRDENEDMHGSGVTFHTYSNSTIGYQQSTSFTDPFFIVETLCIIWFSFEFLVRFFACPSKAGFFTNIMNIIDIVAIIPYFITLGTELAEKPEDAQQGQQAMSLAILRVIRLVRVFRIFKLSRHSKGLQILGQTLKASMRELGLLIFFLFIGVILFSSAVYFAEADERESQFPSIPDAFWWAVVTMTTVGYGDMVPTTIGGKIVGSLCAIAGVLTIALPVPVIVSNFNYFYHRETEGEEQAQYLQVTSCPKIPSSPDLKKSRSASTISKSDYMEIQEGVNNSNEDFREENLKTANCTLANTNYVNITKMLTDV
From the text: To construct the gene encoding a fluorescent concatenated dimer mKate2-Kv1.1-Kv1.2 (K-Kv1.1-1.2), a cloning strategy was used, in which the C-terminus of the human Kv1.1 α-subunit was fused end-to-end to the N-terminus of the human Kv1.2 α-subunit via a short KL linker that corresponds to the HindIII restriction site. Here, we followed the design of the α-subunit concatemers proposed earlier. The previously obtained plasmids pmKate2-KCNA1 and pmKate2-KCNA2, which coded for mKate2-Kv1.1 (K-Kv1.1) and mKate2-Kv1.2 (K-Kv1.2) fusion proteins, were used for cloning. In these proteins, both human α-subunits Kv1.1 and Kv1.2 are N-terminally tagged with the red fluorescent protein mKate2 and harbor single mutations (S369T in Kv1.1, and S371T in Kv1.2) that improve the surface presentation of the homotetrameric channels. At first, pmKate2-KCNA1stopless was generated by amplification of the KCNA1 gene lacking TAA stop codon in a polymerase chain reaction (PCR) using a pair of oligonucleotide primers Kcna1-f1 (5′-[…]-3′) and Kcna1-Stop-r1 (5′-[…]-3′; BglII and HindIII sites are underlined). The obtained DNA fragment was hydrolyzed by BglII/HindIII restriction endonucleases and cloned into pmKate2-KCNA1 plasmid to substitute KCNA1 for KCNA1stopless. The obtained plasmid pmKate2-KCNA1stopless was further used as a vector to produce the KCNA1-KCNA2 dimer. For this, the KCNA2 gene was amplified in PCR using primers Kcna2-Hind-f1 (5′- […]-3′) and Kcna2-Sal-r1 ([…]-3′; HindIII, SalGI, and PstI sites are underlined; TAA stop codon is marked in bold) and cloned into HindIII/SalI sites of pmKate2-KCNA1stopless. The resulting pmKate2-KCNA1-KCNA2 plasmid encoded K-Kv1.1-1.2.
To analyze the binding of HgTx-G to heterochannels, HgTx-G (0.032–2 nM) was added to cells in the complete medium for 1 h. In the experiments with competitive binding, HgTx-G (0.5 nM) was added to cells, together with the studied peptide ([…]; 1.25–100 nM ChTx; 0.5–20 nM AgTx2, 2–10 nM MeKTx11-1, 0.063–1 nM Ce1, 0.063–1 nM Ce4, or 1 µM ScyTx), and incubated in the complete medium for 1 h.
Confocal microscopy measurements were carried out with the SP2 laser scanning confocal microscope (Leica Microsystems GmbH, Wetzlar, Germany), using the 63× water-immersion objective (HCX PL APO, NA = 1.2). Axial and lateral resolutions were 0.6 and 0.2 µm.
Fluorescence of proteins labeled with mKate2 was excited at 561 nm and detected in the 680–800 nm region. Fluorescence of HgTx-G was excited at 488 nm and recorded in the 495–540 nm region. The fluorescent probes of various cellular organelles were excited at 488 nm and detected in the 495–540 nm region.
Quantitative analysis of HgTx-G interaction with heterochannels was performed following the procedure developed previously. Briefly, confocal images of cells were used to calculate the ratio of the fluorescence intensity of HgTx-G bound to heterochannels to the fluorescence intensity of membrane-embedded heterochannels for each measured cell. This ratio was averaged over a sample of measured cells (20–30 cells) to obtain the Rav value and its standard deviation.
To characterize the affinity of unlabeled peptide for heterochannels, the competitive binding of this peptide and HgTx-G to heterochannels was measured at the constant concentration of HgTx-G (L) and increasing concentration (C) of the peptide. Rav data were calculated, plotted as a function of C, and fitted with the following equation:Rav(C) = Rav0/(1 + C/DC50)(2) where DC50 is the peptide concentration displacing 50% of HgTx-G from the complex with heterochannels, and Rav0 is Rav at C = 0.
Further, the Cheng–Prusoff equation was used to calculate the apparent dissociation constant (Kap) of the complex between the studied peptide and heterochannels:Kap = DC50/(1 + L/Kd)(3)
Three independent experiments were performed, and data on Kap were averaged and presented as mean ± SEM.

Kv1.2 [3] = details: cited from earlier work; for Kd: Kv1.2, ref [35], read-out: Kap
From the text: (§1) These properties were also similar to those reported by other investigators for the corresponding homotetrameric channels, Kv1.1 and Kv1.2. It was also shown that the Kd of the complexes between HgTx-G, a high-affinity fluorescent ligand for the Kv1.1 and Kv1.2 channels, and ...

Kv1.1 [4] = details: cited from earlier work; for Kd: Kv1.1, read-out: Kap
From the text: as §1

Kv1.3 [5] = assay: Ce4 activity on Kv1.3 (earlier data); details: Table 2 and data published previously [35]
Kv1.2 [6] = assay: Competitive binding, homotetrameric Kv1.2 channel (earlier data); details: Kv1.2 vs Kv1.1 (Table 2)
Kv1.1 [7] = tested on: Kv1.1; parameters: method as in PMID 9446567; details: HEK-293 cells; ref [14]; cited from earlier work
Kv1.2 [8] = tested on: Kv1.2; parameters: method as in PMID 9446567; details: HEK-293 cells; ref [14]; cited from earlier work
Kv1.6 = tested on: Kv1.6; parameters: method as in PMID 9446567; details: HEK-293 cells; ref [14]; cited from earlier work
Kv1.3 [9] = tested on: Kv1.3; parameters: method as in PMID 9446567; details: HEK-293 cells; ref [14]; cited from earlier work

| SMILES | selectivity: activity against Kv1.2 and Kv(1.1-1.2)2 higher than against Kv1.1 (Kv1.1 [1]) | fold lower activity compared to Ce1 [2] | Kd (Kv1.2 [3]) [nM] | Kd (Kv1.1 [4]; ref [35]) [nM] | selectivity: activity against Kv1.2 and Kv(1.1-1.2)2 higher than against Kv1.3 (Kv1.3 [5]) [times] | activity against Kv1.2 compared to Kv1.1 (Kv1.2 [6]) | affinity, 86Rb+ flux inhibition (Kv1.1 [7]) | affinity for Kv(1.1-1.2)2 in words ([2]; Kv(1.1-1.2)2, competitive binding with HgTx-G) | Kd ([2]; Kv(1.1-1.2)2 formed by K-Kv1.1-1.2, competitive displacement of 0.5 nM HgTx-G, complete medium, 1 h, Cheng-Prusoff, mean ± SEM of three independent experiments, read-out: apparent dissociation constant (Kap)) [nM] | displacement of HgTx-G ([2]; channels formed by K-Kv1.1-1.2) | displacement of HgTx-G ([2]; channels formed by K-Kv1.2-1.1) | displacement of HgTx-G from the complexes (Kv1.2 [3]; K-Kv1.2-1.2 and K-Kv1.2, ref [28],[29]) | displacement of HgTx-G from the complexes (Kv1.1 [4]; K-Kv1.1-1.1 and K-Kv1.1, ref [28],[29]) | Kd (Kv1.1 [4]; ref [34]) [nM] | affinity, 86Rb+ flux inhibition (Kv1.2 [8]) | affinity, 86Rb+ flux inhibition (Kv1.6) | affinity, 86Rb+ flux inhibition (Kv1.3 [9]) |
| --- | --- | --- | --- | --- | --- | --- | --- | --- | --- | --- | --- | --- | --- | --- | --- | --- | --- |
| CC[C@H](C)[C@H](NC(=O)[C@H](CCCCN)NC(=O)[C@H](Cc1ccc(O)cc1)NC(=O)[C@@H]1CSSC[C@@H]2NC(=O)[C@@H]3CCCN3C(=O)[C@H](CC(C)C)NC(=O)[C@H](CC(C)C)NC(=O)[C@@H]3CSSC[C@H](NC(=O)[C@H](CCCCN)NC(=O)CNC(=O)[C@H](CC(N)=O)NC(=O)[C@H](CCSC)NC(=O)[C@H](CSSC[C@H](NC(=O)[C@H](CCCCN)NC(=O)[C@@H](NC(=O)[C@H](CC(N)=O)NC(=O)[C@@H](NC(=O)[C@@H](NC(=O)[C@@H](N)[C@@H](C)O)[C@@H](C)CC)[C@@H](C)CC)C(C)C)C(=O)N[C@@H]([C@@H](C)O)C(=O)N[C@@H](CO)C(=O)N4CCC[C@H]4C(=O)N[C@@H](CCCCN)C(=O)N[C@@H](CCC(N)=O)C(=O)N3)NC(=O)[C@H](CCCCN)NC(=O)[C@H](C)NC(=O)CNC(=O)[C@H](C)NC(=O)[C@H](Cc3c[nH]cn3)NC(=O)[C@H]([C@@H](C)CC)NC(=O)CNC(=O)[C@H](Cc3ccc(O)cc3)NC(=O)[C@H]([C@@H](C)CC)NC(=O)[C@H](CCC(=O)O)NC(=O)[C@H](CCCCN)NC2=O)C(=O)N[C@@H](CCCCN)C(=O)N1)C(=O)O [Ce4] (H-TIINVKCTSPKQCLLPCKEIYGIHAGAKCMNGKCKCYKI-OH; disulfide 7-29, 13-34, 17-36; N-terminus and C-terminus assumed) | more than 10,000 times | approximately threefold | 0.03 ± 0.01 | > 300 | > 1000 | much higher activity against the Kv1.2 channel than against the Kv1.1 channel | – | – | – | – | – | – | – | – | – | – | – |
| CC[C@H](C)[C@@H]1NC(=O)CNC(=O)[C@H](Cc2ccccc2)NC(=O)[C@H](CCC(N)=O)NC(=O)[C@H](C)NC(=O)[C@H](CCCCN)NC(=O)[C@@H]2CSSC[C@@H](C(=O)N[C@@H](Cc3ccc(O)cc3)C(=O)N3CCC[C@H]3C(=O)N[C@@H](Cc3c[nH]cn3)C(=O)O)NC(=O)[C@H](CCCCN)NC(=O)[C@@H]3CSSC[C@H](NC(=O)[C@H](CCC(N)=O)NC(=O)[C@H](CCCCN)NC(=O)[C@@H]4CCCN4C(=O)[C@H](CO)NC(=O)[C@H]([C@@H](C)O)NC(=O)[C@@H](NC(=O)[C@H](CCCCN)NC(=O)[C@@H](NC(=O)[C@H](CC(=O)O)NC(=O)[C@@H](NC(=O)[C@@H](NC(=O)[C@@H](N)[C@@H](C)O)C(C)C)[C@@H](C)CC)C(C)C)CSSC[C@H](NC(=O)[C@H](CCCCN)NC(=O)[C@H](C)NC(=O)CNC(=O)[C@H](C)NC(=O)[C@H](CCCNC(=N)N)NC1=O)C(=O)N[C@@H](CCSC)C(=O)N[C@@H](CC(N)=O)C(=O)NCC(=O)N[C@@H](CCCCN)C(=O)N3)C(=O)N[C@@H](CC(C)C)C(=O)N1CCC[C@H]1C(=O)N1CCC[C@H]1C(=O)N2 [HgTx1, hongotoxin 1] (H-TVIDVKCTSPKQCLPPCKAQFGIRAGAKCMNGKCKCYPH-OH; disulfide 7-29, 13-34, 17-36; N-terminus and C-terminus assumed) | – | approximately threefold | 0.02 ± 0.01 | – | – | – | subnanomolar | very high affinity | 0.04 ± 0.01 | displaced HgTx-G | displaced HgTx-G | displaced | displaced | 0.03 ± 0.02 | subnanomolar | nanomolar | subnanomolar |
